± gives the standard deviation of the averaged measurements.
Assays:
Test in all cases: relative cell number vs DMSO control (72 h) (% of DMSO); higher = less growth inhibition (more cells)
Conditions in all cases: sgRNA knockout: sgNT
BT-20 = tested on: BT-20
Method: (§1)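 QMAP-Seq: a pool of 5 breast cancer cell lines (ZR-75-1, SKBR3, HCC-38, MDA-MB-231, BT-20), each carrying 12 doxycycline-inducible Cas9 sgRNA perturbations (11 knockouts plus non-targeting sgNT), was treated with compounds for 72 h at four 10-fold doses (10 nM-10 uM or 1 nM-1 uM range). Barcodes were amplified and sequenced, and cell number was interpolated from 293T spike-in standard curves. The result is expressed as % of the median of DMSO wells. Two biological replicates.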

HCC-38 = tested on: HCC-38
Method: as §1

MDA-MB-231 = tested on: MDA-MB-231
Method: as §1

SKBR3 = tested on: SKBR3
Method: as §1

ZR-75-1 = tested on: ZR-75-1
Method: as §1

| Structure (SMILES) | relative cell number (BT-20; 10 nM) | relative cell number (BT-20; 100 nM) | relative cell number (BT-20; 1000 nM) | relative cell number (BT-20; 10000 nM) | relative cell number (HCC-38; 10 nM) | relative cell number (HCC-38; 100 nM) | relative cell number (HCC-38; 1000 nM) | relative cell number (HCC-38; 10000 nM) | relative cell number (MDA-MB-231; 10 nM) | relative cell number (MDA-MB-231; 100 nM) | relative cell number (MDA-MB-231; 1000 nM) | relative cell number (MDA-MB-231; 10000 nM) | relative cell number (SKBR3; 10 nM) | relative cell number (SKBR3; 100 nM) | relative cell number (SKBR3; 1000 nM) | relative cell number (SKBR3; 10000 nM) | relative cell number (ZR-75-1; 10 nM) | relative cell number (ZR-75-1; 100 nM) | relative cell number (ZR-75-1; 1000 nM) | relative cell number (ZR-75-1; 10000 nM) | relative cell number (BT-20; 1 nM) | relative cell number (HCC-38; 1 nM) | relative cell number (MDA-MB-231; 1 nM) | relative cell number (SKBR3; 1 nM) | relative cell number (ZR-75-1; 1 nM) |
| --- | --- | --- | --- | --- | --- | --- | --- | --- | --- | --- | --- | --- | --- | --- | --- | --- | --- | --- | --- | --- | --- | --- | --- | --- | --- |
| CC(C)(C)c1nc(-c2cccc(NS(=O)(=O)c3c(F)cccc3F)c2F)c(-c2ccnc(N)n2)s1 [Dabrafenib] | 134 ± 10 | 116 ± 16 | 109 ± 12 | 112 ± 1.6 | 141 ± 32 | 96.9 ± 5.1 | 93.8 ± 4.2 | 94.7 ± 7.9 | 106 ± 7.5 | 137 ± 23 | 91.8 ± 27 | 115 ± 10 | 133 ± 3.3 | 121 ± 1.7 | 96.5 ± 9.5 | 104 ± 14 | 129 ± 31 | 128 ± 3.2 | 119 ± 46 | 76.8 ± 7.1 | – | – | – | – | – |
| CN(C)/N=N/c1[nH]cnc1C(N)=O [Dacarbazine] | 73.1 ± 11 | 96.3 ± 16 | 108 ± 13 | 88.5 ± 26 | 96.4 ± 9.5 | 85 ± 22 | 90.4 ± 13 | 96.1 ± 20 | 95 ± 23 | 132 ± 22 | 125 ± 38 | 69.2 ± 6.3 | 89.1 ± 21 | 91.8 ± 8.6 | 86.9 ± 3.4 | 106 ± 30 | 89.3 ± 32 | 87.7 ± 18 | 93.4 ± 33 | 94.9 ± 2.4 | – | – | – | – | – |
| Cc1nc(Nc2ncc(C(=O)Nc3c(C)cccc3Cl)s2)cc(N2CCN(CCO)CC2)n1 [Dasatinib] | 72.1 ± 28 | 82.2 ± 4.3 | 105 ± 1.7 | 63.9 ± 7.7 | 96.2 ± 12 | 66.2 ± 9.8 | 65.7 ± 4.4 | 32.9 ± 2.9 | 100 ± 5.3 | 53.1 ± 6.1 | 56 ± 14 | 13.8 ± 4.3 | 53.8 ± 31 | 96.7 ± 42 | 107 ± 28 | 41.6 ± 1.3 | 107 ± 27 | 75.8 ± 34 | 65.4 ± 11 | 35.9 ± 0.91 | – | – | – | – | – |
| Nc1ncn([C@H]2C[C@H](O)[C@@H](CO)O2)c(=O)n1 [Decitabine] | 92.6 ± 11 | 83 ± 5.8 | 75.7 ± 17 | 50.5 ± 15 | 98.2 ± 27 | 80.8 ± 14 | 49.3 ± 4.6 | 35.6 ± 3.4 | 83 ± 13 | 78.2 ± 10 | 31.2 ± 4.4 | 19.9 ± 0.36 | 104 ± 76 | 68.3 ± 37 | 55.4 ± 22 | 45.9 ± 16 | 119 ± 23 | 54.9 ± 30 | 51.2 ± 7.2 | 40.4 ± 17 | – | – | – | – | – |
| COC(=O)/C=C/C(=O)OC [DimethylFumarate] | 105 ± 18 | 98.2 ± 2.9 | 86.1 ± 15 | 84.8 ± 1.5 | 104 ± 17 | 81.6 ± 2.4 | 91.4 ± 7.1 | 91.3 ± 20 | 107 ± 36 | 88.3 ± 9.9 | 91.2 ± 7.2 | 98.8 ± 16 | 112 ± 23 | 98.3 ± 3 | 86.2 ± 8.6 | 78.2 ± 16 | 95.9 ± 36 | 120 ± 19 | 97.7 ± 76 | 81.2 ± 38 | – | – | – | – | – |
| COc1cccc2c1C(=O)c1c(O)c3c(c(O)c1C2=O)C[C@@](O)(C(=O)CO)C[C@@H]3O[C@H]1C[C@H](N)[C@H](O)[C@H](C)O1 [Doxorubicin] | 83 ± 11 | 46 ± 1.4 | 29.9 ± 5.7 | 16.4 ± 4.5 | 74 ± 5.4 | 38.3 ± 2.5 | 17.2 ± 3.1 | 10.8 ± 3.9 | 75.6 ± 18 | 19.3 ± 8.7 | 20.3 ± 0.47 | 7.68 ± 2.6 | 82.6 ± 29 | 34.4 ± 8.3 | 15 ± 6.8 | 6.86 ± 0.49 | 50 ± 9.8 | 31.7 ± 2.4 | 22.2 ± 16 | 10 ± 4.1 | – | – | – | – | – |
| Nc1ccccc1NC(=O)c1ccc(CNC(=O)OCc2cccnc2)cc1 [Entinostat] | 105 ± 2.6 | 103 ± 22 | 50.9 ± 7.8 | 19 ± 12 | 106 ± 1.9 | 105 ± 3.4 | 64.8 ± 13 | 36.8 ± 3.2 | 90.4 ± 17 | 115 ± 39 | 39.4 ± 5.7 | 12.5 ± 5.6 | 76.3 ± 10 | 102 ± 18 | 30.3 ± 5.2 | 5.86 ± 2 | 75.3 ± 4.2 | 103 ± 25 | 32.6 ± 24 | 36.1 ± 11 | – | – | – | – | – |
| CN1CCN(c2ccc(C(=O)Nc3n[nH]c4ccc(Cc5cc(F)cc(F)c5)cc34)c(NC3CCOCC3)c2)CC1 [Entrectinib] | 97.9 ± 13 | 91.6 ± 1.3 | 92.9 ± 5.6 | – | 96.6 ± 2.2 | 89.3 ± 23 | 79.1 ± 6.5 | – | 101 ± 9.8 | 93.3 ± 6.3 | 105 ± 6.8 | – | 113 ± 3.7 | 82.9 ± 36 | 95 ± 19 | – | 105 ± 44 | 73 ± 13 | 85.7 ± 8.3 | – | 102 ± 28 | 90.4 ± 11 | 86.7 ± 26 | 113 ± 7.7 | 73.5 ± 22 |
| CCOc1ccccc1-n1c(C(C)N2CCN(C(=O)COc3ccc(Cl)cc3)CC2)nc2ccccc2c1=O (stereo not given) [Erastin] | 122 ± 20 | 84.4 ± 8.1 | 99.8 ± 1.4 | 40 ± 1.6 | 97.1 ± 7.7 | 103 ± 9.8 | 99.2 ± 13 | 60.1 ± 4.2 | 90.4 ± 8.9 | 103 ± 30 | 87.6 ± 4.9 | 25.1 ± 4.8 | 111.3 ± 0.82 | 85.9 ± 42 | 118 ± 53 | 46 ± 11 | 99.6 ± 21 | 89.4 ± 42 | 81.3 ± 20 | 60.6 ± 13 | – | – | – | – | – |
| C#Cc1cccc(Nc2ncnc3cc(OCCOC)c(OCCOC)cc23)c1 [Erlotinib] | 103 ± 8.8 | 82.9 ± 2.6 | 81.9 ± 2 | 82.9 ± 8.9 | 105 ± 3 | 87.3 ± 9.9 | 99.1 ± 6.6 | 94.8 ± 1.3 | 98.8 ± 11 | 83.4 ± 2.6 | 98.4 ± 8.8 | 83.6 ± 2.8 | 124 ± 20 | 97.3 ± 14 | 79 ± 12 | 43.6 ± 8.1 | 99 ± 27 | 63.2 ± 3.8 | 97 ± 18 | 84.2 ± 26 | – | – | – | – | – |
| CCOC(=O)[C@@]1(CCCCCCOc2ccc(Cl)cc2)CO1 [Etomoxir] | 97.7 ± 1 | 90.3 ± 13 | 122 ± 23 | 107 ± 9.7 | 94.85 ± 0.42 | 94.52 ± 0.29 | 107 ± 19 | 86.4 ± 3.9 | 120 ± 25 | 109 ± 1.7 | 114 ± 30 | 92.8 ± 19 | 80.7 ± 22 | 98.3 ± 11 | 86.5 ± 40 | 98.3 ± 36 | 67.6 ± 37 | 90.7 ± 8.2 | 75.46 ± 0.14 | 57.2 ± 7.3 | – | – | – | – | – |

From the supplement of paper PMC7661543
